Where a name gives a salt, the structure may show the parent alone.

This note sets out measurements from patent US8642647B2, “N1-benzo[1,3]dioxol-5-ylmethyl-N2-substituted biguanide derivative, preparation method thereof, and pharmaceutical composition containing same” (Hanall Biopharma Co., Ltd., priority 2008, dated 2014).

Type in all cases: cell-based
Assay [1] concerns HepG2 cells. As to the kind of experiment: Measurement of cholesterol synthesis inhibitory ability. Conditions: 24 hours, HepG2 cells, content of cholesterol formed, lower value = stronger inhibition; for Cholesterol (100 μM) aver.: 100 μM compound; for Cholesterol (500 μM) aver.: 500 μM compound. How it is done: (§1) 2 mM metformin was used as a comparative compound for each of the plates (control group).
A cholesterol synthesis inhibitory ability, which is an important function of AMPK (AMP-activated protein kinase), was measured using HepG2 cells (ATCC: American Type Culture Collection) as a hepatic cell model according to the following procedure.
The hepatic cell model HepG2 cells were cultured in 1% serum-containing media (DMEM (Gibco), FBS (Gibco)) for 24 hours, and then treated with 100 μM or 500 μM of each of the compounds prepared in Examples for 24 hours. Then, the cells were disrupted with a lysis solution (0.1 M potassium phosphate, pH 7.4, 0.05 M NaCl, 5 mM cholic acid, 0.1% Triton X-100 (Sigma)). To the disrupted cells was added the same volume of a reaction solution (2 U/ml of a cholesterol oxidizing agent, 2 U/ml of a peroxidase, 0.2 U/ml of a cholesterol esterase, and 300 μM of Amplex red as a fluorescent factor (Molecular Probe)), which was allowed to react at 37° C. for 30 minutes. After completion of the reaction, the content of cholesterol formed in the cell lysates was measured at a wavelength of 560/590 nm (ex/em) using a fluorescence microscope.
A lower measurement value means an increased cholesterol synthesis inhibitory ability.

The subject of assay [2] is HepG2 cells. As to the kind of experiment: Measurement of gluconeogenesis inhibitory ability. Conditions: Homo sapiens, HepG2, 24 h, 100 μM compound, 24 hours, HepG2 cells; content of glucose formed from 14C-lactate; lower value = stronger inhibition; read-out: Gluconeogenesis inhibition (100 μM) aver. How it is done:
as §1
HepG2 cells (ATCC: American Type Culture Collection) were cultured in 10% serum-containing high glucose media, transferred to no serum-containing low glucose media (DMEM (Gibco), FBS (Gibco)), and then treated with 100 μM of each of the compounds for 24 hours. Then, the cells were treated with 0.5 μCi ^14C-lactate (Amersham Pharmacia) and 10 mM L-lactate (Sigma), and cultured for 4 hours. After cultivation, the media were removed therefrom, and the cells were washed with PBS, treated with 0.1N NaOH and kept at room temperature for 1 hour. Then, the cells were neutralized with 1N HCl, and the content of glucose formed in the cells was measured with a liquid scintillation counter.
A lower measurement value means an increased gluconeogenesis inhibitory ability.

For assay [3], the system named is HepG2 cells. The assay is described as follows: Measurement of triglyceride synthesis inhibitory ability. Conditions: for Triglyceride (100 μM) aver.: 100 μM compound; for Triglyceride (100 μM) aver. / Triglyceride (500 μM) aver.: 24 hours, HepG2 cells, content of triglyceride formed, lower value = stronger inhibition; for Triglyceride (500 μM) aver.: 500 μM compound. How it is done:
as §1
HepG2 cells (ATCC: American Type Culture Collection) were cultured in 1% serum-containing media (DMEM (Gibco), FBS (Gibco)) for 24 hours, and then treated with 100 μM or 500 μM of each of the compounds prepared in Examples for 24 hours. Then, the cells were disrupted with a lysis solution (0.1 M potassium phosphate, pH 7.4, 0.05 M NaCl, 5 mM cholic acid, 0.1% Triton X-100). To the disrupted cells was added the same volume of a reaction solution (0.76 U/ml of a glycerol kinase (Asan Pharmaceutical Co., Ltd.), […] of a peroxidase (Asan Pharmaceutical Co., Ltd.), 22.2 U/ml of a glycerol oxidizing agent (Asan Pharmaceutical Co., Ltd.), and 300 μM of Amplex red as a fluorescent factor (Molecular Probe)), which was allowed to react at 37° C. for 30 minutes. After completion of the reaction, the content of triglyceride formed in the cell lysates was measured at a wavelength of 560/590 nm (ex/em) using a fluorescence microscope.
A lower measurement value means an increased triglyceride synthesis inhibitory ability.

In the case of `COc1ccc(CN=C(NCc2ccc3c(c2)OCO3)NC(=N)N)cc1.Cl` [Example 37, N1-benzo[1,3]dioxol-5-ylmethyl-N2-(4-methoxybenzyl)biguanide hydrochloride], in assay [1], the “Cholesterol (100 μM) aver.” value was determined as 60.36 and the “Cholesterol (500 μM) aver.” value turned out to be 32.20. In addition, in assay [2], the activity at 100 µM was determined as 104%. In assay [3] (100 μM compound versus 2 mM metformin), the “effect in inhibiting triglyceride synthesis better than that of the control group” value is reported as “at least 20 times”. In assay [3], the “Triglyceride (100 μM) aver.” value is given as 62.82 and the “Triglyceride (500 μM) aver.” value is 58.60.
Take `Cl.N=C(N)NC(=NCc1ccc(F)c(F)c1)NCc1ccc2c(c1)OCO2` [Example 44, N1-benzo[1,3]dioxol-5-ylmethyl-N2-(3,4-difluorobenzyl)biguanide hydrochloride]: in assay [1], the “Cholesterol (100 μM) aver.” value was 74.32 and the “Cholesterol (500 μM) aver.” value amounted to 49.84. For the same compound, the activity at 100 µM in assay [2] was determined as 103%. Besides, in assay [3], the “Triglyceride (100 μM) aver.” value was determined as 78.42 and the “Triglyceride (500 μM) aver.” value is recorded as 56.79.
Take `CCCCCCc1ccc(N=C(NCc2ccc3c(c2)OCO3)NC(=N)N)cc1.Cl` [Example 25, N1-benzo[1,3]dioxol-5-ylmethyl-N2-(4-hexylphenyl)biguanide hydrochloride]: in assay [1], the “Cholesterol (100 μM) aver.” value came out at 82.62 and the “Cholesterol (500 μM) aver.” value was determined as 125.3. Also, in assay [2], the activity at 100 µM came out at 2.53%. In assay [3], the “Triglyceride (100 μM) aver.” value stood at 18.43 and the “Triglyceride (500 μM) aver.” value is recorded as 35.53.
In the case of `Cl.N=C(N)NC(=NC1CC1)NCc1ccc2c(c1)OCO2` [Example 38, N1-benzo[1,3]dioxol-5-ylmethyl-N2-cyclopropyl biguanide hydrochloride], in assay [1], the “Cholesterol (100 μM) aver.” value was 57.32 and the “Cholesterol (500 μM) aver.” value was determined as 47.06. Also, in assay [2], the activity at 100 µM worked out at 78.9%. In assay [3], the “Triglyceride (100 μM) aver.” value was determined as 95.00 and the “Triglyceride (500 μM) aver.” value is reported as 61.43.
With `C=CCN=C(NCc1ccc2c(c1)OCO2)NC(=N)N` [Example 18, N1-benzo[1,3]dioxol-5-ylmethyl-N2-allyl biguanide hydrochloride], in assay [1], the “Cholesterol (100 μM) aver.” value was 40.31 and the “Cholesterol (500 μM) aver.” value is listed as 9.71. The activity at 100 µM in assay [2] was 95.1%. Besides, in assay [3], the “Triglyceride (100 μM) aver.” value amounted to 97.00 and the “Triglyceride (500 μM) aver.” value was 46.89.
With `Cl.N=C(N)NC(=Nc1ccc(F)cc1)NCc1ccc2c(c1)OCO2` [Example 14, N1-benzo[1,3]dioxol-5-ylmethyl-N2-(4-fluorophenyl)biguanide hydrochloride], the “Cholesterol (100 μM) aver.” value in assay [1] is on record as 57.35. For the same compound, in assay [2], the activity at 100 µM stood at 102%. Moreover, in assay [3], the “Triglyceride (100 μM) aver.” value was determined as 115.04.
For `Cl.N=C(N)NC(=Nc1ccc(Br)cc1)NCc1ccc2c(c1)OCO2` [Example 32, N1-benzo[1,3]dioxol-5-ylmethyl-N2-(4-bromophenyl)biguanide hydrochloride], in assay [1], the “Cholesterol (100 μM) aver.” value is 11.62 and the “Cholesterol (500 μM) aver.” value turned out to be 20.56. Moreover, the activity at 100 µM in assay [2] was determined as 4.42%. In assay [3], the “Triglyceride (100 μM) aver.” value turned out to be 35.08 and the “Triglyceride (500 μM) aver.” value was 17.38.
The corresponding values for `CCCCN=C(NCc1ccc2c(c1)OCO2)NC(=N)N.Cl` [Example 39, N1-benzo[1,3]dioxol-5-ylmethyl-N2-butyl biguanide hydrochloride] are 70.48, 49.52, 87.3%, 98.77 and 64.23.
`CC(C)(C)c1ccc(N=C(NCc2ccc3c(c2)OCO3)NC(=N)N)cc1.Cl` [Example 33, N1-benzo[1,3]dioxol-5-ylmethyl-N2-(4-t-butylphenyl)biguanide hydrochloride]: in assay [1], the “Cholesterol (100 μM) aver.” value amounted to 20.42 and the “Cholesterol (500 μM) aver.” value came to 30.52. In addition, the activity at 100 µM in assay [2] was found to be 2.35%. Moreover, in assay [3], the “Triglyceride (100 μM) aver.” value is on record as 27.40 and the “Triglyceride (500 μM) aver.” value amounted to 7.08.
For the compound `Cl.N=C(N)NC(=Nc1ccc(Oc2ccccc2)cc1)NCc1ccc2c(c1)OCO2` [Example 30, N1-benzo[1,3]dioxol-5-ylmethyl-N2-(4-phenoxyphenyl)biguanide hydrochloride], in assay [1], the “Cholesterol (100 μM) aver.” value amounted to 21.94 and the “Cholesterol (500 μM) aver.” value is recorded as 40.34. The activity at 100 µM in assay [2] is 3.04%. Besides, in assay [3], the “Triglyceride (100 μM) aver.” value turned out to be 18.22 and the “Triglyceride (500 μM) aver.” value is on record as 3.05.
With `Cl.N=C(N)NC(=Nc1ccc2c(c1)Cc1ccccc1-2)NCc1ccc2c(c1)OCO2` [Example 13, N1-benzo[1,3]dioxol-5-ylmethyl-N2-(2-fluorenyl)biguanide hydrochloride], the “Cholesterol (100 μM) aver.” value in assay [1] worked out at 31.42. For the same compound, in assay [2], the activity at 100 µM was 2.15%. In assay [3], the “Triglyceride (100 μM) aver.” value came out at 9.22.
On to `COc1ccc(OC)c(N=C(NCc2ccc3c(c2)OCO3)NC(=N)N)c1.Cl` [Example 12, N1-benzo[1,3]dioxol-5-ylmethyl-N2-(2,5-dimethoxyphenyl)biguanide hydrochloride], for which the “Cholesterol (100 μM) aver.” value in assay [1] is 58.53. The activity at 100 µM in assay [2] came out at 27.4%. The “Triglyceride (100 μM) aver.” value in assay [3] worked out at 84.10.
Consider `CCCCCCN=C(NCc1ccc2c(c1)OCO2)NC(=N)N.Cl` [Example 6, N1-benzo[1,3]dioxol-5-ylmethyl-N2-hexyl biguanide hydrochloride], for which, in assay [1], the “Cholesterol (100 μM) aver.” value is reported as 31.8 and the “Cholesterol (500 μM) aver.” value amounted to 19.1. Also, in assay [2], the activity at 100 µM is 104%. In addition, in assay [3], the “Triglyceride (100 μM) aver.” value was 97.8 and the “Triglyceride (500 μM) aver.” value came to 70.3.
The like results for `Cl.N=C(N)NC(=Nc1cccc(Br)c1)NCc1ccc2c(c1)OCO2` [Example 41, N1-benzo[1,3]dioxol-5-ylmethyl-N2-(3-bromophenyl)biguanide hydrochloride] were, in that order, 23.61, 32.23, 0%, 25.51 and 19.79.
As to `N=C(N)NC(=Nc1cccc2ccccc12)NCc1ccc2c(c1)OCO2` [Example 3, N1-benzo[1,3]dioxol-5-ylmethyl-N2-(1-naphthyl)biguanide hydrochloride], in assay [1], the “Cholesterol (100 μM) aver.” value turned out to be 8.11 and the “Cholesterol (500 μM) aver.” value was 28.8. Further, in assay [2], the activity at 100 µM was found to be 3.27%. In assay [3], the “Triglyceride (100 μM) aver.” value is 3.74 and the “Triglyceride (500 μM) aver.” value is −6.97.
As to `COCCOCCOCCN=C(NCc1ccc2c(c1)OCO2)NC(=N)N.Cl` [Example 46, N1-benzo[1,3]dioxol-5-ylmethyl-N2-(2-(2-(2-methoxyethoxy)ethoxy)ethyl)biguanide hydrochloride], in assay [1], the “Cholesterol (100 μM) aver.” value is recorded as 90.31 and the “Cholesterol (500 μM) aver.” value was determined as 91.68. Moreover, the activity at 100 µM in assay [2] is 101%. Moreover, in assay [3], the “Triglyceride (100 μM) aver.” value is 89.69 and the “Triglyceride (500 μM) aver.” value worked out at 93.41.
As to `Cl.N=C(N)NC(=NCc1ccc(Br)cc1)NCc1ccc2c(c1)OCO2` [Example 36, N1-benzo[1,3]dioxol-5-ylmethyl-N2-(4-bromobenzyl)biguanide hydrochloride], in assay [1], the “Cholesterol (100 μM) aver.” value was determined as 25.31 and the “Cholesterol (500 μM) aver.” value was found to be 40.17. The activity at 100 µM in assay [2] was 92.9%. Besides, in assay [3], the “Triglyceride (100 μM) aver.” value was determined as 61.93 and the “Triglyceride (500 μM) aver.” value is 24.04.
Turning to `CCCN=C(NCc1ccc2c(c1)OCO2)NC(=N)N.Cl` [Example 16, N1-benzo[1,3]dioxol-5-ylmethyl-N2-propyl biguanide hydrochloride], in assay [1], the “Cholesterol (100 μM) aver.” value turned out to be 38.66. In addition, the activity at 100 µM in assay [2] amounted to 33.1%. For the same compound, in assay [3], the “Triglyceride (100 μM) aver.” value came to 32.56.
